Marks after values point to notes of the source that are not given here. Numbered stars: 1 amine (or outer) side, 2 acyl side, 3 side chain; on linkers, the order of the positions; unused ones are H or OH. Square brackets hold non-standard residues; d marks the D form. Side chains are listed from the residue outwards. Peptide text beside a SMILES is read from it. * marks the point of attachment. Isobutyryl(2-(3-CN-5-F-Ph)) = CC(C)(C(=O)*)c1cc(F)cc(C#N)c1; C20 diacid = O=C(O)CCCCCCCCCCCCCCCCCCC(=O)*; γGlu = O=C(O)[C@H](CCC(=O)[*:2])N[*:1]; AEEA = NCCOCCOCC(=O)O; Aib = CC(C)(N)C(=O)O; βAla = NCCC(=O)O
What was measured:
[1] = chronic toxicology, repeat dosing 26 weeks; type: in vivo; conditions: rats
Source text: Thus, CT-388 can be a potent drug that induces significant weight loss and helps achieve optimal glycemic control, with acceptable tolerability, in overweight or obese adults with or without T2DM or other weight-related comorbidities. CT-388 can potentially be used as a non-invasive alternative to bariatric surgery for weight management.

[2] = Phase 1 MAD Cohorts 6-8: safety and tolerability (TEAEs); type: in vivo, human; conditions: N = 6
Source text: The primary objective of this study is to determine the safety and tolerability of CT-388 in otherwise healthy overweight and obese adult participants when administered once weekly over 4 consecutive weeks with titrated dosing.
Safety and tolerability will be assessed by monitoring adverse events (AE) including local injection-site reactions, measuring vital signs and ECGs, and performing clinical laboratory blood and urine analyses.
• Cohort 6: One weekly dose titrated across 4 consecutive weeks with CT-388 doses of . . . • 5.0 mg at Day 1 • 5.0 mg at Day 8 • 5.0 mg at Day 15 • 7.5 mg at Day 22 • . . . or matched placebo administered subcutaneously in the abdomen • Cohort 7: One weekly dose titrated across 4 consecutive weeks with CT-388 doses of . . . • 5.0 mg at Day 1 • 5.0 mg at Day 8 • 8.0 mg at Day 15 • 12.0 mg at Day 22 • . . . or matched placebo administered subcutaneously in the abdomen • Cohort 8: One weekly dose titrated across 4 consecutive weeks with CT-388 doses of . . . • 5.0 mg at Day 1 • 8.0 mg at Day 8 • 12.0 mg at Day 15 • 12.0 mg at Day 22 • . . . or matched placebo administered subcutaneously in the abdomen (the third dose in Cohort 8 can be lowered to 8.0 mg based on tolerability data from Cohort 7) • Cohort 9: One weekly dose titrated across 4 consecutive weeks with CT-388 doses of . . . • 8.0 mg at Day 1 • 8.0 mg at Day 8 • 12.0 mg at Day 15 • 16.0 mg at Day 22 • . . . or matched placebo administered subcutaneously in the abdomen • Cohort 10: the following two dosing options are proposed in Table 3 below:
A Phase 1, randomized, placebo-controlled, double-blind study was conducted where single ascending doses (SAD; n=40; 0.5-7.5 mg) and multiple ascending doses (MAD; n=24; 5-12 mg via titration in 3 cohorts) were administered as described in Example 1 to overweight/obese adults.
The 24 patients in the MAD arm were divided into three cohorts (Cohorts 6, 7, and 8) as shown in Table 5 below (EOT: end of treatment).
Briefly, participants were randomized 3:1 (6 to CT-388, 2 to placebo, n=8 per cohort). CT-388 was administered once weekly at a dose of 5 mg at baseline in all cohorts and up-titrated up to 12 mg in Cohorts 7 & 8. Oral Glucose Tolerance Test (OGTT) with 75 g glucose solution was performed at baseline (Day −1) and on Day 23. Blood was collected at 15 min prior to OGTT, at OGTT start, and in 30-minute intervals until 120 minutes. Fasting glucose, insulin, C-peptide, and HOMA-IR were measured/calculated at baseline and on Day 23.

CC[C@H](C)[C@H](NC(=O)[C@H](CC(C)C)NC(=O)[C@H](Cc1c[nH]c2ccccc12)NC(=O)[C@H](CCC(N)=O)NC(=O)[C@@H](NC(=O)[C@H](Cc1ccccc1)NC(=O)[C@H](C)NC(=O)[C@H](CCCCNC(=O)COCCOCCNC(=O)COCCOCCNC(=O)CC[C@H](NC(=O)CCCCCCCCCCCCCCCCCCC(=O)O)C(=O)O)NC(=O)[C@H](CCC(N)=O)NC(=O)[C@H](C)NC(=O)[C@@H](NC(=O)[C@H](CCCCN)NC(=O)[C@H](CC(=O)O)NC(=O)[C@H](CC(C)C)NC(=O)C(C)(C)NC(=O)[C@@H](NC(=O)[C@H](CO)NC(=O)[C@H](Cc1ccc(O)cc1)NC(=O)[C@H](CC(=O)O)NC(=O)[C@H](CO)NC(=O)[C@@H](NC(=O)[C@H](Cc1ccccc1)NC(=O)[C@@H](NC(=O)CNC(=O)[C@H](CCC(=O)O)NC(=O)CCNC(=O)C(C)(C)c1cc(F)cc(C#N)c1)[C@@H](C)O)[C@@H](C)O)[C@@H](C)CC)[C@@H](C)CC)C(C)C)C(=O)N[C@@H](C)C(=O)NCC(=O)NCC(=O)N1CCC[C@H]1C(=O)N[C@@H](CO)C(=O)N[C@@H](CO)C(=O)NCC(=O)N[C@@H](C)C(=O)N1CCC[C@H]1C(=O)N1CCC[C@H]1C(=O)N1CCC[C@H]1C(=O)N[C@@H](CO)C(N)=O [CT-388] ({Isobutyryl(2-(3-CN-5-F-Ph))-βAla}-EGTFTSDYSI[Aib]LDKIAQK([AEEA-AEEA-γGlu-C20 diacid])AFVQWLIAGGPSSGAPPPS-NH2)
1 n (%): Dyspepsia ([2]; Cohort 6, 5/5/5/7.5 mg SC QW)
100 fold: tolerated dosing exceeds the pharmacologically active dose ([1]; 26-weeks)
5 n (%): Vomiting ([2]; Cohort 6, 5/5/5/7.5 mg SC QW)
well tolerated: tolerability, chronic toxicology ([1]; repeat dosing over 26-weeks)
33 # Events: Drug-related TEAEs ([2]; Cohort 6, 5/5/5/7.5 mg SC QW)
4 n (%): Nausea Grade 1 ([2]; Cohort 6, 5/5/5/7.5 mg SC QW) | Nausea Grade 2 ([2]; Cohort 6, 5/5/5/7.5 mg SC QW, same subject experienced both mild and moderate events)
6 n (%): GI TEAEs (Total) ([2]; Cohort 6, 5/5/5/7.5 mg SC QW) | Nausea ([2]; Cohort 6, 5/5/5/7.5 mg SC QW)
2 n (%): Diarrhea ([2]; Cohort 6, 5/5/5/7.5 mg SC QW) | Diarrhea Grade 1 ([2]; Cohort 6, 5/5/5/7.5 mg SC QW) | Vomiting Grade 1 ([2]; Cohort 6, 5/5/5/7.5 mg SC QW)
18 # Events: Drug-related TEAEs ([2]; Cohort 7, 5/5/8/12 mg SC QW)
6 (100) n (%): Subjects with at least 1 TEAE ([2]; Cohort 6, 5/5/5/7.5 mg SC QW) | TEAE Severity: Grade 1 ([2]; Cohort 6, 5/5/5/7.5 mg SC QW) | TEAE Severity: Grade 2 ([2]; Cohort 6, 5/5/5/7.5 mg SC QW)
0 n (%): Constipation Grade 2 ([2]; Cohort 6, 5/5/5/7.5 mg SC QW) | Constipation Grade 3 ([2]; Cohort 6, 5/5/5/7.5 mg SC QW) | Diarrhea Grade 2 ([2]; Cohort 6, 5/5/5/7.5 mg SC QW) | Diarrhea Grade 3 ([2]; Cohort 6, 5/5/5/7.5 mg SC QW) | Eructation ([2]; Cohort 6, 5/5/5/7.5 mg SC QW) | Gastroesophageal Reflux Disease ([2]; Cohort 6, 5/5/5/7.5 mg SC QW) | Nausea Grade 3 ([2]; Cohort 6, 5/5/5/7.5 mg SC QW) | Subjects discontinued due to TEAE ([2]; Cohort 6, 5/5/5/7.5 mg SC QW) | TEAE Severity: Grade 3 ([2]; Cohort 6, 5/5/5/7.5 mg SC QW) | Vomiting Grade 3 ([2]; Cohort 6, 5/5/5/7.5 mg SC QW) | Abdominal Distention ([2]; Cohort 7, 5/5/8/12 mg SC QW) | Constipation ([2]; Cohort 7, 5/5/8/12 mg SC QW) | Constipation Grade 1 ([2]; Cohort 7, 5/5/8/12 mg SC QW) | Constipation Grade 2 ([2]; Cohort 7, 5/5/8/12 mg SC QW) | Constipation Grade 3 ([2]; Cohort 7, 5/5/8/12 mg SC QW) | Diarrhea Grade 2 ([2]; Cohort 7, 5/5/8/12 mg SC QW) | Diarrhea Grade 3 ([2]; Cohort 7, 5/5/8/12 mg SC QW) | Dyspepsia ([2]; Cohort 7, 5/5/8/12 mg SC QW)
2 (33.3) n (%): Diarrhea ([2]; Cohort 7, 5/5/8/12 mg SC QW) | Diarrhea Grade 1 ([2]; Cohort 7, 5/5/8/12 mg SC QW) | Eructation ([2]; Cohort 7, 5/5/8/12 mg SC QW)
4 (66.7) n (%): GI TEAEs (Total) ([2]; Cohort 7, 5/5/8/12 mg SC QW)
3 n (%): Abdominal Distention ([2]; Cohort 6, 5/5/5/7.5 mg SC QW) | Constipation ([2]; Cohort 6, 5/5/5/7.5 mg SC QW) | Constipation Grade 1 ([2]; Cohort 6, 5/5/5/7.5 mg SC QW) | Vomiting Grade 2 ([2]; Cohort 6, 5/5/5/7.5 mg SC QW)
0 # Events: Fatal TEAEs ([2]; Cohort 6, 5/5/5/7.5 mg SC QW) | Serious TEAEs ([2]; Cohort 6, 5/5/5/7.5 mg SC QW) | Fatal TEAEs ([2]; Cohort 7, 5/5/8/12 mg SC QW)
